From ChEMBL document CHEMBL5241125, “Overcoming intrinsic resistance in gram-negative bacteria using small molecule adjuvants” (Bioorg Med Chem Lett, 2023)
Each block holds one compound with its values, some of them ahead of it. Where a SMILES comes first, the peptide text is derived from it. Bridges are numbered along the chain shown (N, C = ends). [ ]: non-standard residue; d: D form. Dab = NCC[C@H](N)C(=O)O

Assays:
[1] = test system: Acinetobacter baumannii; test: Antibacterial adjuvant activity against Acinetobacter baumannii AB5075 assessed as decrease in clarithromycin MIC at 30 uM incubated for 16 hrs in presence of clarithromycin by broth microdilution method; assay type: functional
[2] = test system: Acinetobacter baumannii; test: Antibacterial adjuvant activity against Acinetobacter baumannii AB5075 assessed as decrease in clarithromycin MIC at 10 uM incubated for 16 hrs in presence of clarithromycin by broth microdilution method; assay type: functional
[3] = test system: Acinetobacter baumannii; test: Antibacterial adjuvant activity against Acinetobacter baumannii AB5075 assessed as decrease in vancomycin MIC at 30 uM incubated for 16 hrs in presence of vancomycin by broth microdilution method; assay type: functional
[4] = test system: Escherichia coli; test: Antibacterial activity against Escherichia coli IH3080 assessed as reduction in bacterial growth by measuring fold change incubated for 18 hrs by spectrophotometry; assay type: functional
[5] = test system: Salmonella typhimurium; test: Antibacterial activity against Salmonella typhimurium SH5014 assessed as reduction in bacterial growth by measuring fold change incubated for 18 hrs by spectrophotometry; assay type: functional, Salmonella enterica subsp. enterica serovar Typhimurium
[6] = test system: Escherichia coli; test: Antibacterial activity against Escherichia coli IH3080 assessed as reduction in bacterial growth by measuring fold change at 3 ug/ml incubated for 18 hrs by spectrophotometry; assay type: functional; details: dose 3 µg/ml
[7] = test system: Salmonella typhimurium; test: Antibacterial activity against Salmonella typhimurium SH5014 assessed as reduction in bacterial growth by measuring fold change at 3 ug/ml incubated for 18 hrs by spectrophotometry; assay type: functional, Salmonella enterica subsp. enterica serovar Typhimurium; details: dose 3 µg/ml
[8] = test system: Pseudomonas aeruginosa; test: Antibacterial adjuvant activity against Pseudomonas aeruginosa PAO1 assessed as decrease in azithromycin MIC at 60 uM incubated for 16 hrs in presence of azithromycin by broth microdilution method; assay type: functional
[9] = test system: Pseudomonas aeruginosa; test: Antibacterial adjuvant activity against Pseudomonas aeruginosa PAO1 assessed as decrease in azithromycin MIC at 40 uM incubated for 16 hrs in presence of azithromycin by broth microdilution method; assay type: functional
[10] = test system: Acinetobacter baumannii; test: Synergistic antibacterial activity against colistin-sensitive Acinetobacter baumannii ATCC 17978 infected in C57BL/6 mouse assessed as increase in survival rate at 5 mg/kg,po administered in presence of pentamidine for 7 days; assay type: functional; details: ATCC 17978, 168 h, time 7 day
[11] = test system: Acinetobacter baumannii; test: Synergistic antibacterial activity against colistin-resistant Acinetobacter baumannii ATCC 17978 infected in C57BL/6 mouse assessed as increase in survival rate at 50 mg/kg,po administered in presence of pentamidine for 7 days; assay type: functional; details: ATCC 17978, 168 h, time 7 day
[12] = test system: Acinetobacter baumannii; test: Synergistic antibacterial activity against colistin-sensitive Acinetobacter baumannii ATCC 17978 infected in C57BL/6 mouse assessed as increase in survival rate at 10 mg/kg,po administered in presence of novobiocin for 7 days; assay type: functional; details: ATCC 17978, 168 h, time 7 day
[13] = Binding affinity to Escherichia coli Lipid A assessed as dissociation constant
[14] = test system: Acinetobacter baumannii; test: Synergistic antibacterial activity against colistin-resistant Acinetobacter baumannii ATCC 17978 infected in C57BL/6 mouse assessed as increase in survival rate at 10 mg/kg,po administered in presence of novobiocin for 7 days; assay type: functional; details: ATCC 17978, 168 h, time 7 day
[15] = test system: Acinetobacter baumannii; test: Synergistic antibacterial activity against Acinetobacter baumannii infected in mouse assessed as increase in survival rate at 5 mg/kg,po administered bid in presence of SPR741 for 3 days; assay type: functional; details: 72 h, time 3 day
[16] = test system: Acinetobacter baumannii; test: Synergistic antibacterial activity against Acinetobacter baumannii infected in mouse assessed as reduction of bacterial burden in lung at 5 mg/kg,po administered bid in presence of SPR741 for 3 days; assay type: functional; details: time 3 day
[17] = test system: Acinetobacter baumannii; test: Antibacterial activity against Acinetobacter baumannii infected in mouse assessed as increase in survival rate at 5 mg/kg,po administered bid for 3 days; assay type: functional; details: 72 h, time 3 day
[18] = test system: Acinetobacter baumannii; test: Antibacterial activity against Acinetobacter baumannii infected in mouse assessed as reduction of bacterial burden in lung at 5 mg/kg,po administered bid for 3 days; assay type: functional; details: time 3 day
[19] = test system: Acinetobacter baumannii; test: Synergistic antibacterial activity against Acinetobacter baumannii infected in mouse assessed as increase in survival rate at 60 mg/kg,po administered bid in presence of rifampin for 3 days; assay type: functional; details: 72 h, time 3 day
[20] = test system: Acinetobacter baumannii; test: Synergistic antibacterial activity against Acinetobacter baumannii infected in mouse assessed as reduction of bacterial burden in lung at 60 mg/kg,po administered bid in presence of rifampin for 3 days; assay type: functional; details: time 3 day

- MIC [1]: 0.25 µg/mL
- MIC [2]: 2 µg/mL
- MIC [3]: 1 µg/mL
SMILES: Nc1nc(-c2ccc(NC(=O)c3cc(Cl)cc(Cl)c3)cc2)c[nH]1

- MIC [1]: 0.25 µg/mL
- MIC [2]: 2 µg/mL
- MIC [3]: 1 µg/mL
SMILES: Nc1ncc(-c2ccc(NC(=O)c3cc(Br)cc(Br)c3)cc2)[nH]1

SMILES: CC(C)C[C@@H]1NC(=O)[C@@H](Cc2ccccc2)NC(=O)[C@H](CCN)NC(=O)[C@@H](NC(=O)[C@H](CCN)NC(=O)[C@@H](NC(=O)[C@@H](N)CCN)[C@H](C)O)CCNC(=O)[C@H]([C@@H](C)O)NC(=O)[C@H](CCN)NC(=O)[C@H](CCN)NC1=O
- fold change (FC) [4]: 300
- fold change (FC) [5]: 300

SMILES: CC(C)C[C@@H]1NC(=O)[C@@H](Cc2ccccc2)NC(=O)[C@H](CCN)NC(=O)[C@@H](NC(=O)[C@H](CCN)NC(=O)[C@@H](N)[C@H](C)O)CCNC(=O)[C@H]([C@@H](C)O)NC(=O)[C@H](CCN)NC(=O)[C@H](CCN)NC1=O
- fold change (FC) [6]: 10
- fold change (FC) [7]: 10

- MIC [8]: 0.25 µg/mL
- MIC [9]: 1 µg/mL
SMILES: NCCCC(c1c[nH]c(N)n1)c1cnc(N)[nH]1

SMILES: CC(C)C[C@@H]1NC(=O)[C@@H](CC(C)C)NC(=O)[C@H](CCN)NC(=O)[C@@H](NC(=O)[C@H](CCN)NC(=O)[C@@H](NC(=O)[C@@H](N)CCN)[C@H](C)O)CCNC(=O)[C@H]([C@@H](C)O)NC(=O)[C@H](CCN)NC(=O)[C@H](CCN)NC1=O
- fold change (FC) [4]: 300
- fold change (FC) [5]: 300

SMILES: CO[C@@H]1[C@@H](OC(N)=O)[C@@H](O)[C@H](Oc2ccc3c(O)c(NC(=O)c4ccc(O)c(CC=C(C)C)c4)c(=O)oc3c2C)OC1(C)C [NOVOBIOCIN]
- survival at 5 mg/kg [10]: 100%
- survival at 50 mg/kg [11]: 90%

SMILES: N=C(N)c1ccc(OCCCCCOc2ccc(C(=N)N)cc2)cc1 [PENTAMIDINE]
- survival at 10 mg/kg [12]: 100%
- Kd [13]: 120 nM
- survival at 10 mg/kg [14]: 90%

SMILES: CO[C@H]1/C=C/O[C@@]2(C)Oc3c(C)c(O)c4c(O)c(c(/C=N/N5CCN(C)CC5)c(O)c4c3C2=O)NC(=O)/C(C)=C\C=C\[C@H](C)[C@H](O)[C@@H](C)[C@@H](O)[C@@H](C)[C@H](OC(C)=O)[C@@H]1C [RIFAMPIN]
- survival at 5 mg/kg [15]: 90%
- Activity [16]: 6 log10CFU/g
- survival at 5 mg/kg [17]: 50%
- Activity [18]: 2 log10CFU/g

SMILES: CC(=O)N[C@H](C(=O)N[C@H](CO)C(=O)N[C@H]1CCNC(=O)[C@H]([C@@H](C)O)NC(=O)[C@H](CCN)NC(=O)[C@H](CCN)NC(=O)[C@H](CC(C)C)NC(=O)[C@@H](Cc2ccccc2)NC(=O)[C@H](CCN)NC1=O)[C@@H](C)O [SPR-741] (Ac-T[dS][Dab][Dab][dF]L[Dab][Dab]T; lactam 3-C)
- survival at 60 mg/kg [19]: 90%
- Activity [20]: 6 log10CFU/g
